Holding throughout (format): in vivo
The subject of series [1] is Matricaria recutita L. (wild chamomile). As to the kind of experiment: Field trial in winter oilseed rape, visual weed control, MATCH. The settings on record: 112 to 188 Days after Application. As for the experimental part:
(§1) Field trials were conducted in winter oilseed rape crop using small plot research methodology. The oilseed rape crop was grown using normal cultural practices for the respective area of the trials, using varieties, fertilization and maintenance to ensure normal growth of the crop and the weeds. Plot size was 2 meters (m) wide by 10 m long with 4 replicates by treatment. All treatments were applied preemergence to early postemergence to the weeds using a compressed air backpack sprayer delivering 200 liters per hectare (L/ha) spray volume. Commercially available product of propyzamide/pronamide was mixed with a formulation of aminopyralid potassium at appropriately formulated product rates to achieve the desired rates based on a unit area of application (hectare) to achieve the desired rates as shown. Treatments consisted of propyzamide applied alone, as well as aminopyralid applied alone, and in combination, to measure herbicidal weed control and any synergistic interactions. Treatments were rated at different intervals from treatment to time of evaluation up to the following year when the crop starts to grow again in the spring. The weed efficacy was compared to the untreated control plants. Visual weed control was scored on a scale of 0 to 100 percent where 0 corresponds to no injury and 100 corresponds to complete kill. […]

In series [2] the test system is Papaver rhoeas L. (corn poppy). The experiment in a line: Field trial in winter oilseed rape, visual weed control, PAPRH. Conditions: for % Control PAPRH (1) Ob: France, 112 to 188 Days after Application; for % Control PAPRH (2) Ob: Great Britain. As for the experimental part: (§2) Field trials were conducted in winter oilseed rape crop using small plot research methodology. The oilseed rape crop was grown using normal cultural practices for the respective area of the trials, using varieties, fertilization and maintenance to ensure normal growth of the crop and the weeds. Plot size was 2 meters (m) wide by 10 m long with 4 replicates by treatment. All treatments were applied preemergence to early postemergence to the weeds using a compressed air backpack sprayer delivering 200 liters per hectare (L/ha) spray volume. Commercially available product of propyzamide/pronamide was mixed with a formulation of aminopyralid potassium at appropriately formulated product rates to achieve the desired rates based on a unit area of application (hectare) to achieve the desired rates as shown. Treatments consisted of propyzamide applied alone, as well as aminopyralid applied alone, and in combination, to measure herbicidal weed control and any synergistic interactions. Treatments were rated at different intervals from treatment to time of evaluation up to the following year when the crop starts to grow again in the spring. The weed efficacy was compared to the untreated control plants. Visual weed control was scored on a scale of 0 to 100 percent where 0 corresponds to no injury and 100 corresponds to complete kill. Colby's equation was used to determine the herbicidal effects expected from the mixtures (Colby, S. R. […] Calculation of the synergistic and antagonistic response of herbicide combinations.). The following equation was used to calculate the expected activity of mixtures containing two active ingredients, A and B: […] A=observed efficacy of active ingredient A at the same concentration as used in the mixture; B=observed efficacy of active ingredient B at the same concentration as used in the mixture.

Series [3] has as its system Viola arvensis Murr. (field violet). The experiment in a line: Field trial in winter oilseed rape, visual weed control, VIOAR. The settings on record: 112 to 188 Days after Application. As for the experimental part:
as §2

Series [4] concerns Matricaria spp L. (chamomile species). The experiment in a line: Field trial in winter oilseed rape, visual weed control, MATSS. The settings on record: 93 to 188 Days after Application. On the procedure: as §1
In series [5] the test system is Alopecurus myosuroides Huds. (blackgrass). The experiment in a line: Field trial in winter oilseed rape, visual weed control, ALOMY. Conditions: 93 to 200 Days after Application. As for the experimental part: as §2
Series [6] has as its system Poa annua L. (annual bluegrass). The experiment in a line: Field trial in winter oilseed rape, visual weed control, POANN. The settings on record: Great Britain, 93 to 200 Days after Application. On the procedure:
as §2

Series [7] deals with Brassica napus L. ssp. Napus (winter oil seed rape). As to the kind of experiment: Field trial, crop tolerance (crop injury) of winter oilseed rape, BRSNW. Conditions: 167 Days after Application. On the procedure:
as §2

Consider 2 compounds from US8609587B2, “Synergistic herbicidal compositions containing propyzamide and aminopyralid” (Dow AgroSciences, LLC., priority 2010, dated 2013).

The structures appear in SMILES notation.

On to `Nc1cc(Cl)nc(C(=O)O)c1Cl` [Aminopyralid, 4-amino-3,6-dichloro-2-pyridinecarboxylic acid], for which the “% Control MATCH Ob” value in series [1] (aminopyralid 6 g ae/ha alone) was found to be 80%. Moreover, the “% Control PAPRH (1) Ob” value came to 48% in series [2] (aminopyralid 6 g ae/ha alone) and 68% in series [2] (aminopyralid 8 g ae/ha alone). Also, the “% Control PAPRH (2) Ob” value was determined as 48% in series [2] (aminopyralid 6 g ae/ha alone, 93 to 188 Days after Application (Table 2)); 0% in series [2] (aminopyralid 6 g ae/ha alone, 112 to 188 Days after Application (Table 1)); 68% in series [2] (aminopyralid 8 g ae/ha alone, 93 to 188 Days after Application (Table 2)); 75% in series [2] (aminopyralid 8 g ae/ha alone, 112 to 188 Days after Application (Table 1)). Further, the “% Control VIOAR Ob” value in series [3] (aminopyralid 6 g ae/ha alone) and in series [3] (aminopyralid 8 g ae/ha alone) was 0% each time. For the same compound, the “% Control MATSS Ob” value in series [4] (aminopyralid 10 g ae/ha alone) came to 48%. The “% Control ALOMY Ob” value in series [5] (aminopyralid 6 g ae/ha alone) and in series [5] (aminopyralid 8 g ae/ha alone) was 0% each time. In addition, the “% Control POANN (1) Ob” value in series [6] (aminopyralid 6 g ae/ha alone) and in series [6] (aminopyralid 8 g ae/ha alone) was 0% throughout. For the same compound, the “% Control POANN (2) Ob” value in series [6] (aminopyralid 6 g ae/ha alone) and in series [6] (aminopyralid 8 g ae/ha alone) was 0% in each case. For the same compound, the “% Crop Injury BRSNW Ob” value in series [7] (aminopyralid 6 g ae/ha alone) is listed as 23%; in series [7] (aminopyralid 8 g ae/ha alone) it was 22%.
On to `C#CC(C)(C)NC(=O)c1cc(Cl)cc(Cl)c1` [Propyzamide, 3,5-dichloro-N-(1,1-dimethylpropynyl)benzamide], for which, in series [1] (propyzamide 750 g ai/ha alone), the “% Control MATCH Ob” value came out at 0%. In addition, the “% Control PAPRH (1) Ob” value in series [2] (propyzamide 750 g ai/ha alone) is 18%. The “% Control PAPRH (2) Ob” value in series [2] (propyzamide 750 g ai/ha alone, 112 to 188 Days after Application (Table 1)) is reported as 0%; in series [2] (propyzamide 840 g ai/ha alone, 93 to 188 Days after Application (Table 2)), 11%. In addition, the “% Control VIOAR Ob” value in series [3] (propyzamide 750 g ai/ha alone) came to 27%. Moreover, the “% Control MATSS Ob” value in series [4] (propyzamide 750 g ai/ha alone) amounted to 7%. For the same compound, in series [5] (propyzamide 750 g ai/ha alone), the “% Control ALOMY Ob” value turned out to be 75%. Moreover, the “% Control POANN (1) Ob” value in series [6] (propyzamide 750 g ai/ha alone) and in series [6] (propyzamide 840 g ai/ha alone) was 22% each time. For the same compound, in series [6] (propyzamide 750 g ai/ha alone), the “% Control POANN (2) Ob” value came out at 22%. Besides, the figures for the “% Crop Injury BRSNW Ob” value in series [7] (propyzamide 750 g ai/ha alone) and in series [7] (propyzamide 840 g ai/ha alone) were 0% and 2%, respectively.
